Patent US20100184704A1, “USE OF THE PEPTIDE GLY-ARG-GLY-ASP-ASN-PRO AS A THERAPEUTIC AGENT” (priority 2007, published 2010)
Where a SMILES comes first, the peptide text is derived from it.

System: drug-resistant Mycobacterium tuberculosis
Settings: 5 micrograms per ml

SMILES: N=C(N)NCCC[C@H](NC(=O)CN)C(=O)NCC(=O)N[C@@H](CC(=O)O)C(=O)N[C@@H](CC(N)=O)C(=O)N1CCC[C@H]1C(=O)O [Gly-Arg-Gly-Asp-Asn-Pro, Gly-Arg-Gly-Asp-Asn-Pro-OH] (H-GRGDNP-OH)
- % inhibition: 0.0%
